Assay results published in ChEMBL document CHEMBL1201862, “PubChem BioAssay data set” (2004).
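Method: 48-hour compound exposure of cells in 96-well plates, five concentrations, linear interpolation of endpoints. GI50: concentration for 50% inhibition of growth.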 The source made the active and inactive calls. No stated cut-off is given here; in the data, active = GI50 up to about 1.1 µM and inactive = higher.

Key:
Assay in all cases: inhibition of tumour cell growth, NCI panel, 48 h
[1] = test system: OVCAR-4
[2] = test system: HOP-62
[3] = test system: U-251
[4] = test system: HT-29
[5] = test system: SF-268
[6] = test system: COLO 205
[7] = test system: HCC 2998
[8] = test system: RPMI-8226
[9] = test system: A498
[10] = test system: NCI-H522
[11] = test system: K562
[12] = test system: HL-60
[13] = test system: HCT-15
[14] = test system: M14
[15] = test system: OVCAR-5
[16] = test system: SN12C
[17] = test system: UACC-62
[18] = test system: SNB-19
[19] = test system: IGROV-1
[20] = test system: SK-MEL-2

SMILES	GI50 [1]	GI50 [2]	GI50 [3]	GI50 [4]	GI50 [5]	GI50 [6]	GI50 [7]	GI50 [8]	GI50 [9]	GI50 [10]	GI50 [11]	GI50 [12]	GI50 [13] [µM]	GI50 [14]	GI50 [15]	GI50 [16]	GI50 [17]	GI50 [18]	GI50 [19]	GI50 [20]
COc1ccccc1C(=O)c1c(NCc2ccccc2)c(=O)c1=O	> 100 µM (inactive)	> 100 µM (inactive)	66.4 µM (inactive)	> 100 µM (inactive)	> 100 µM (inactive)	28.3 µM (inactive)	> 100 µM (inactive)	32.9 µM (inactive)	> 100 µM (inactive)	11.5 µM (inactive)	27.5 µM (inactive)	21 µM (inactive)	27.4	> 100 µM (inactive)	> 100 µM (inactive)	> 100 µM (inactive)	> 100 µM (inactive)	> 100 µM (inactive)	9.55 µM (inactive)	> 100 µM (inactive)
Cc1ccc(/N=N/C(C(=O)c2ccccc2)C(=O)c2ccccc2)cc1	13.1 µM (inactive)	21.1 µM (inactive)	18 µM (inactive)	22 µM (inactive)	29.8 µM (inactive)	22.6 µM (inactive)	38.3 µM (inactive)	16.9 µM (inactive)	27.4 µM (inactive)	17.3 µM (inactive)	17.7 µM (inactive)	9.08 µM (inactive)	14.2	15.7 µM (inactive)	22.2 µM (inactive)	18.7 µM (inactive)	16.4 µM (inactive)	19 µM (inactive)	31.2 µM (inactive)	19.5 µM (inactive)
Cc1ccc(OCC2OC(n3cnc4c(Cl)nc(N)nc43)CC2Oc2ccc(C)cc2)cc1 (configuration not stated)	21.4 µM (inactive)	> 36.1 µM (inactive)	> 55.6 µM (inactive)	46.1 µM (inactive)	41.6 µM (inactive)	68.4 µM (inactive)	24.4 µM (inactive)	33 µM (inactive)	> 75 µM (inactive)	3.61 µM (inactive)	29.4 µM (inactive)	13.9 µM (inactive)	31	9.27 µM (inactive)	34.3 µM (inactive)	10.4 µM (inactive)	> 63.5 µM (inactive)	38 µM (inactive)	19.4 µM (inactive)	> 38.1 µM (inactive)
COC(=O)C(F)C(Br)C(=O)OC (configuration not stated)	3.39 µM (inactive)	16.3 µM (inactive)	3.05 µM (inactive)	2.57 µM (inactive)	7.71 µM (inactive)	1.67 µM (inactive)	8 µM (inactive)	1.41 µM (inactive)	20.9 µM (inactive)	1.43 µM (inactive)	1.63 µM (inactive)	1.95 µM (inactive)	1.82	5.79 µM (inactive)	16.4 µM (inactive)	16.9 µM (inactive)	15.9 µM (inactive)	30.7 µM (inactive)	2.69 µM (inactive)	16.1 µM (inactive)
CCOc1ccc2c(C)cc(=O)oc2c1	> 100 µM (inactive)	> 100 µM (inactive)	> 100 µM (inactive)	> 100 µM (inactive)	> 100 µM (inactive)	> 100 µM (inactive)	> 100 µM (inactive)	> 100 µM (inactive)	> 100 µM (inactive)	> 100 µM (inactive)	> 100 µM (inactive)	> 100 µM (inactive)	> 100	> 100 µM (inactive)	> 100 µM (inactive)	> 100 µM (inactive)	> 100 µM (inactive)	> 100 µM (inactive)	> 100 µM (inactive)	> 100 µM (inactive)
COc1cc2cc(C(=O)N3CC(CCl)c4ccc(NO)cc43)[nH]c2c(OC)c1OC (configuration not stated)	0.177 µM (active)	0.0925 µM (active)	0.0927 µM (active)	0.0646 µM (active)	0.101 µM (active)	0.468 µM (active)	0.0977 µM (active)	0.117 µM (active)	0.0675 µM (active)	0.0671 µM (active)	0.139 µM (active)	0.126 µM (active)	0.243	0.188 µM (active)	0.15 µM (active)	0.286 µM (active)	0.0991 µM (active)	0.264 µM (active)	0.0968 µM (active)	0.126 µM (active)
Nc1ccn(C2OC(CO[PH](=O)OC3C(CO[PH](=O)OC4C(CO[PH](=O)OC5C(CO[PH](=O)OC6C(CO[PH](=O)OC7C(CO[PH](=O)OC8C(CO[PH](=O)OC9C(CO[PH](=O)OC%10C(CO[PH](=O)OC%11C(CO)OC(n%12ccc(N)nc%12=O)C%11(F)F)OC(n%11ccc(N)nc%11=O)C%10(F)F)OC(n%10ccc(N)nc%10=O)C9(F)F)OC(n9ccc(N)nc9=O)C8(F)F)OC(n8ccc(N)nc8=O)C7(F)F)OC(n7ccc(N)nc7=O)C6(F)F)OC(n6ccc(N)nc6=O)C5(F)F)OC(n5ccc(N)nc5=O)C4(F)F)OC(n4ccc(N)nc4=O)C3(F)F)C(O)C2(F)F)c(=O)n1 (configuration not stated)	10 µM (inactive)	0.0581 µM (active)	0.0373 µM (active)	0.112 µM (active)	0.0285 µM (active)	0.741 µM (active)	0.0805 µM (active)	0.0582 µM (active)	0.114 µM (active)	1.43 µM (inactive)	1.49 µM (inactive)	0.0193 µM (active)	0.442	–	0.111 µM (active)	0.0661 µM (active)	0.0466 µM (active)	0.0259 µM (active)	0.912 µM (active)	2.18 µM (inactive)
Cc1ccc(C2CC(c3cccc([N+](=O)[O-])c3)=Nc3ccccc3S2)cc1 (configuration not stated)	44.6 µM (inactive)	> 62.8 µM (inactive)	27.5 µM (inactive)	32.4 µM (inactive)	34.9 µM (inactive)	98.2 µM (inactive)	82.2 µM (inactive)	7.83 µM (inactive)	> 54.3 µM (inactive)	20.5 µM (inactive)	20.6 µM (inactive)	20.1 µM (inactive)	25.5	31.8 µM (inactive)	> 100 µM (inactive)	32.9 µM (inactive)	25.4 µM (inactive)	> 58.3 µM (inactive)	63.8 µM (inactive)	38.3 µM (inactive)
O=C1CSC(/C=C/c2ccccc2)N1c1nc2cc3sc(N4C(=O)CSC4/C=C/c4ccccc4)nc3cc2s1 (configuration not stated)	65.3 µM (inactive)	> 74 µM (inactive)	44.6 µM (inactive)	18 µM (inactive)	> 100 µM (inactive)	3.66 µM (inactive)	43.8 µM (inactive)	22 µM (inactive)	> 100 µM (inactive)	6.97 µM (inactive)	42.4 µM (inactive)	68.1 µM (inactive)	> 34.1	> 100 µM (inactive)	> 65.6 µM (inactive)	18.3 µM (inactive)	> 100 µM (inactive)	> 84.5 µM (inactive)	> 62.1 µM (inactive)	33.6 µM (inactive)
O=C(OCCOC(=O)c1ccc2c(c1)C1(SCCS1)c1ccccc1-2)c1ccc2c(c1)C1(SCCS1)c1ccccc1-2	> 100 µM (inactive)	> 100 µM (inactive)	> 100 µM (inactive)	> 100 µM (inactive)	> 100 µM (inactive)	> 100 µM (inactive)	> 100 µM (inactive)	> 100 µM (inactive)	> 100 µM (inactive)	> 100 µM (inactive)	> 100 µM (inactive)	> 100 µM (inactive)	> 100	> 100 µM (inactive)	> 100 µM (inactive)	> 100 µM (inactive)	> 100 µM (inactive)	> 100 µM (inactive)	> 100 µM (inactive)	> 100 µM (inactive)
O=C1NC(O)CCN1C1OC(CO)C(O)C1O (configuration not stated)	> 250 µM (inactive)	> 228 µM (inactive)	> 79.8 µM (inactive)	> 250 µM (inactive)	> 250 µM (inactive)	> 250 µM (inactive)	> 250 µM (inactive)	> 250 µM (inactive)	> 211 µM (inactive)	> 216 µM (inactive)	> 250 µM (inactive)	> 250 µM (inactive)	> 250	–	> 92 µM (inactive)	> 250 µM (inactive)	> 250 µM (inactive)	> 250 µM (inactive)	> 250 µM (inactive)	> 158 µM (inactive)
CC/C=C\C/C=C\C/C=C\CCCCCCCC(=O)OC [METHYL LINOLENATE]	> 100 µM (inactive)	> 100 µM (inactive)	> 100 µM (inactive)	> 100 µM (inactive)	> 100 µM (inactive)	61.1 µM (inactive)	> 100 µM (inactive)	99.3 µM (inactive)	> 100 µM (inactive)	> 100 µM (inactive)	45.5 µM (inactive)	22.8 µM (inactive)	> 100	–	> 100 µM (inactive)	> 100 µM (inactive)	> 100 µM (inactive)	> 100 µM (inactive)	> 100 µM (inactive)	> 100 µM (inactive)
